System: db/db mice
Assay: Plasma HDL-cholesterol, triglycerides and free fatty acids in db/db mice after per os treatment
Assay type: in vivo, mouse
Details: 50 mpk per os, 28 days
Protocol: The effect of the compounds according to the invention is evaluated in vivo on the db/db mice by measuring the levels of HDL-cholesterol, triglycerides, and plasma free fatty acids after 28 days of a per os treatment with the compounds according to the invention.
The hypolipidemic properties of the compounds according to the invention are evaluated in vivo by measuring the plasma levels of plasmatic lipids and by analyzing the genetic expression PPARs target genes, after treating the dyslipidemic db/db mice with the compounds according to the invention, administered by the oral route.
Female db/db mice were kept on a 12 hour/12 hour light/dark cycle at a constant temperature of 20±3° C. After a one week acclimatization period, the mice were weighed and divided into groups of 8 animals selected such as the distribution of body weight and of plasma lipid rate, determined before the experiment, was uniform. The tested compounds were suspended in carboxymethylcellulose (Sigma C4888) and administered to the animals by intra-gastric gavage, once a day for 28 days at the chosen doses. The animals had free access to food and water (standard diet). Taking of food and weight gain are recorded throughout the experiment. At the end of the experiment, after a 4 hour fast, the animals were anesthetized and a blood sample was taken on anticoagulant (EDTA). Then the mice were weighed and euthanized. The plasma was separated by centrifugation at 3000 rotations/minute for 20 minutes. The samples were kept at +4° C. The hepatic tissue and skeletal muscle samples were taken and frozen immediately in liquid nitrogen then conserved at −80° C. for later analysis.
Plasma triglycerides concentrations are measured by enzymatic assays (bioMérieux-Lyon-France) according to the provider's recommendations.
Low-density lipoproteins (VLDL and LDL) are precipitated by phosphotungstate. The precipitate is eliminated by centrifugation. HDL-cholesterol present in the supernatant is measured by enzymatic assay (bioMérieux-Lyon-France) in accordance with the provider's recommendations.

`CCCOc1ccc(C(=O)CCc2cc(C)c(OC(C)(C)C(=O)O)c(C)c2)cc1` [Compound 8, 2-[2,6-dimethyl-4-[3-[4-(propyloxy)phenyl]-3-oxo-propyl]phenoxyl]-2-methylpropanoic acid] was tested, and the “plasma HDL-cholesterol rates” value (vs control animals (FIG. 3-1)) was “significantly increased”, the circulating triglycerides rates (vs control animals (FIG. 3-2)) was “very significantly decreased” and the “circulating free fatty acids rates” value (vs control animals (FIG. 3-3)) was “very significantly decreased”.
